Experimental data from patent publication US20250127777A1, “DUAL INHIBITION OF MDM2 AND EIF2-ALPHA INDUCES CELL DEATH IN MULTIPLE CANCER CELL TYPES” (The Regents of the University of Colorado, A Body Corporate, priority 2022, published 2025).

Key:
TPC1 and HCT116 = test: Polysome profiling (polysome/monosome ratio); assay type: cell-based; settings: 24 hours
Method: TPC1 and HCT116 were plated at 6*104/cm2 on 143 cm2 dishes, cultivated o/n, and treated accordingly. Ten minutes before the harvest cultivation media was supplemented with cycloheximide (CHX) at final concentration of 100 μg/ml. Next, cells were washed twice with ice-cold PBS with 100 μg/ml CHX and lysed in polysome preparation lysis buffer (20 mM HEPES pH 7.4, 15 mM MgCl2, 200 mM NaCl, 1% Triton X-100, 100 μg/ml CHX, 2 mM DTT, and 100U SuperaseIN). Lysates were cleared of debris by centrifugation at 20,000g, 4° C. for 10 minutes. Total nucleic acid content in lysates was measured by absorbance at 260 nm and used for sample concentration normalization. Next, 500 μl of the lysate was loaded on 10-60% sucrose gradients in SW41 tubes in lysis buffer lacking Triton X-100. These gradients were prepared using a BioComp system and chilled to 4° C. before use. Samples were ultracentrifuged at 36,000 rpm for 3 hours and 10 min, at 4° C., then samples were fractionated using a BioComp system, monitoring absorbance at 260 nm while collecting fractions of approximately 0.4 ml each.

p53 = test: Western blot of p53 in thyroid carcinoma cells; assay type: cell-based; settings: TPC1 and K1 cells; 10 μM nutlin-3a, 25 μM GSK2830371; 24 hours
Method: (§1) Following a brief sonication (2.5W, 5 sec) and heat denaturation (90° C., 5 min), total protein concentration in whole cell lysates was measured by a BCA Protein Assay Kit (Pierce, Thermo Fisher Scientific). 20 μg of protein per sample was resolved by SDS-PAGE and transferred onto a 0.45 μm PVDF membrane (0.2 μm for ATF3 detection). Membranes were incubated in blocking buffer (5% fat-free milk in wash buffer—20 mM Tris pH 7.6, 150 mM NaCl, 0.2% Tween 20) for an hour at RT and o/n at 4° C. with the primary antibody diluted in a fresh blocking buffer. Next day membranes were washed three times for 10 min in the wash buffer, incubated with HRP-conjugated secondary antibody for an hour at RT, and washed again three times in the wash buffer. SuperSignal West Pico Plus Chemiluminescence Substrate (Pierce) was used for detection and digital images were acquired using an ImageQuant LAS 4000 (GE Healthcare Life Sciences).

cell viability = test: Cell viability after single-agent treatment; assay type: cell-based
PPM1D = test: Western blot of PPM1D expression; assay type: cell-based; settings: 25 μM GSK2830371; 24 hours
Method: as §1, with “Protein samples were prepared with cells washed twice with PBS and lysed in modified Laemmli buffer (Laemmli, 1970) (1% w/v SDS, 10% w/v glycerol, 100 mM Tris pH 7.2, protease (complete Mini, Roche) and phosphatase (PhosSTOP, Roche) inhibitors). Following” for “Following”

K1 cells [1] = test: RNA-seq transcriptome analysis (DESeq2); assay type: cell-based, Human; settings: nutlin 10 μM, GSK2830371 25 μM, or both, 24 hours
Method: (§2) TPC1 and K1 cells were plated at 2*104/cm2 and treated for 24 hours as indicated. Following the treatment period, cells were washed with ice-cold PBS and lysed in TRI Reagent (Millipore Sigma). Quality of the extracted RNA was assessed by Agilent Bioanalyzer 2100 using RNA 6000 Pico chips (Agilent). Single-end 150 bp sequencing of the poly-A (+)-enriched RNA was carried out on the Illumina HiSeq 4000 platform by the Genomics Core facility at the University of Colorado Anschutz.
(§3) Quality of the sequencing data was analyzed using FASTQC (version 0.11.2, available at the website www.bioinformatics.babraham.ac.uk/projects/fastqc and presence of common sequencing contaminants was assessed by FastQ Screen (v0.4.4) available at the website www.bioinformatics.babraham.ac.uk/projects/fastq_screen/. Bases with low quality (Q<10) were 3′ end trimmed and reads shorter than 30 nt were discarded using the Fastx toolkit (v0.0.13.2). Reads were aligned to a GRCh37/hg19 Human reference using TopHat2 (v2.0.13,-b2-sensitive-keep-fasta-order-no-coverage-search-max-multihits 10-library-type fr-firststrand) (Kim et al., 2013) with the UCSC hg19 GTF annotation file provided in the iGenomes UCSC hg19 bundle available at the website: support.illumina.com/sequencing/sequencing_software/igenome.html. Aligned reads with MAPQ<10 quality were removed using SAMtools (v0.1.19). Alignments were then sorted by coordinates, and duplicates were identified using Picard (v1.129). Quality assessment of final mapped reads was conducted using RSeQC (v2.6) (Wang et al., 2012). Gene-level counts were obtained using HTSeq (v0.6.1) (Anders et al., 2015) with the following options (-stranded=reverse -minaqual=10-type=exon-idattr=gene_id_mode=intersection-nonempty) using the iGenomes UCSC hg19 GTF annotation file. Differential gene expression was evaluated using DESeq2 (version 1.6.3) (Love et al., 2014) in R (version 3.1.0), using q<0.05 (FDR<5%) and fold-change>1.5 (Up) or <1/1.5 (Down) as cutoffs for differentially expressed genes. Genome browser snapshots were generated from bedGraph or tgv files using IGV genome viewer (v2.8.10) (Thorvaldsdottir et al., 2013).

TPC1 cells [2] = test: RNA-seq transcriptome analysis (DESeq2); assay type: cell-based, Human; settings: nutlin 10 μM, GSK2830371 25 μM, or both, 24 hours
Method: as §2, §3

K1 cells [3] = test: Annexin V-FITC/PI apoptosis assay by flow cytometry; assay type: cell-based; settings: 10 μM nutlin-3a, 25 μM GSK2830371, or both, 72 hours
Method: (§4) TPC1, K1, HCT116, MCF7, SJSA, and HEK293FT cells were cultivated in RPMI (TPC1, SJSA), DMEM (K1, MCF7, HEK293FT), and McCoy's (HCT116) media (Gibco, Thermo Fisher Scientific) supplemented with 10% fetal bovine serum (Peak Serum) and 1% antibiotic-antimycotic mixture (Gibco). Cells were plated a day before the treatment and maintained in a humidified atmosphere with 5% of CO2 at 37° C. Both TPC1 and K1 lines were gifts from Dr. Rebecca Schweppe, University of Colorado Anschutz Medical Campus (CU-AMC). Cell line identity has been verified by short tandem repeats profiling at the Cell Technologies Shared Resource, CU-AMC. Colorectal cancer organoid cultures (CRC172) were obtained from the Enteroid Stem Cell Core facility at CU-AMC.
(§5) The fraction of apoptotic cells was determined by Annexin V-FITC/PI assay. Briefly, cells harvested by trypsinization were resuspended in Annexin-V binding buffer (10 mM HEPES pH 7.4, 140 mM NaCl, 2.5 mM CaCl2)). Approximately 2*10^5 cells were labeled with Annexin-V-FITC (Invitrogen) and PI (10 μg/ml, Millipore-Sigma) for 15 minutes in the dark before flow cytometric analysis (Accuri C6, Becton Dickinson). To analyze mitochondrial membrane potential (44m) cells were trypsinized and resuspended in cultivation media. An aliquot of approximately 5*10^5 cells per sample was mixed with tetramethylrhodamine, ethyl ester, perchlorate (TMRE, Thermo Fisher, 100 nM final concentration) solution, incubated for 10 minutes in the dark, and analyzed by flow cytometer.

TPC1 cells [4] = test: as above; assay type: cell-based; settings: 10 μM nutlin-3a, 25 μM GSK2830371, or both, 72 hours
Method: as §4, §5

diverse cell types = test: Annexin V-FITC/PI apoptosis assay, elF2α plus MDM2 inhibition; assay type: cell-based
Method: as §4
as §5, with “To analyze mitochondrial membrane potential (44m) cells were trypsinized and resuspended in cultivation media.” left out

SMILES	polysome/monosome ratio (TPC1 and HCT116)	p53 stabilization (p53)	effects on cell viability when administered alone (cell viability)	PPM1D expression (PPM1D)	differentially expressed mRNAs versus vehicle (K1 cells [1])	differentially expressed mRNAs versus vehicle (TPC1 cells [2])	apoptosis (Annexin V-FITC/PI) (K1 cells [3])	apoptosis (Annexin V-FITC/PI) (TPC1 cells [4])	synergy with small molecule inhibitors of MDM2 to elicit p53-dependent cell death (diverse cell types)
Cc1ncc(Cl)cc1NCc1ccc(C(=O)N[C@@H](CC2CCCC2)C(=O)NC2CC2)s1 [GSK2830371]	decreases in the polysome/monosome ratio	does not stabilize p53	limited effects on cell viability	reduces PPM1D expression	had little impact on the transcriptome	had little impact on the transcriptome	does not stabilize p53 or induce apoptosis	does not stabilize p53 or induce apoptosis	
O=C(/C=C/c1ccccc1)NC(NC(=S)Nc1ccc(Cl)cc1)C(Cl)(Cl)Cl (stereo not drawn) [sal003]									synergize with small molecule inhibitors of MDM2 to elicit p53-dependent cell death
